Test system: HMG-CoA reductase (3-hydroxy-3-methyl-glutaryl-coenzyme A reductase)
Assay: HMG-CoA reductase enzyme activity determination (modified from G. C. Ness et al.), relative in vitro activity versus mevinolin
Assay type: biochemical, rat (male Rico rats, liver)
Conditions: from IC50 values, IC50 of reference mevinolin set at 1; 20 min preincubation at 37° C., 60 min incubation
Method: The enzyme activity determination was carried out as modified by G. C. Ness et al., Archives of Biochemistry and Biphysics 197, 493-499 [1979]. Male Rico rats (body weight 300-400 g) were treated for 11 days with altromin powdered feed to which 40 g of cholestyramine/kg of feed had been added. After description, the livers were removed from the animals and placed on ice. The livers were comminuted and homogenized 3 times in 3 volumes of 0.1 m sucrose, 0.05 m KCl, 0.04 m Kx Hy phosphate, 0.03 m ethylenediaminetetraacetic acid, 0.002 m dithiothreitol [SPE] buffer pH 7.2 in a Potter-Elvejem homogenizer. The mixture was then centrifuged at 15,000 g for 15 minutes and the sediment was discarded. […]
After incubating for 60 minutes at 37° C., the batch was centrifuged and 600 μl of the supernatant was applied to a 0.7×4 cm column packed with a 5-chloride 100-200 mesh (anion exchanger). The column was subsequently washed with 2 ml of distilled water and 3 ml of Aquasol were added to runnings plus washing water and counted in an LKB scintillation counter. IC50 values were determined by intrapolation by plotting the percentage inhibition against the concentration of the compound in the test. In order to determine the relative inhibitory potency, the IC50 value of the reference substance mevinolin was set at 1 and compared with the simultaneously determined IC50 value of the test compound.

Row | relative activity (mevinolin = 1) | SMILES
1 | 2 | CCCCn1c(=O)[nH]c(=O)c2c(-c3ccc(F)cc3)c(/C=C/[C@@H](O)C[C@@H](O)CC(=O)OC)c(C(C)C)nc21 (relative stereo) [Example 8, Methyl erythro-(E)-7-[1-butyl-5-(4-fluorophenyl)-7-isopropyl-2,4-dioxo-1,2,3,4-terahydro-pyrido(2,3-d)pyrimidin-6-yl]-3,5-dihydroxy-hept-6-enoate]
2 | 6 | COC(=O)C[C@H](O)C[C@H](O)/C=C/c1c(C(C)C)nc2c(c1-c1ccc(F)cc1)c(=O)[nH]c(=O)n2C (relative stereo) [Example 16, Methyl erythro-(E)-7-[5-(4-fluorophenyl)-7-isopropyl-1-methyl-2,4-dioxo-1,2,3,4-tetrahydro-pyrido(2,3-d)pyrimidin-6-yl]-3,5-dihydroxy-hept-6-enoate]

Reference: US5075311A, “HMG-CoA reductase inhibiting substituted pryido (2,3-d) pyrimidines” (Bayer Aktiengesellschaft, priority 1989, dated 1991)
